One may read the IC50 as the concentration needed to halve the response being measured.

The source of these data is publication PMC6251858 (Acta Pharmaceutica Sinica. B, 2018).

Common to all, as to assay type: cell-based
In one test the test system is Coxsackie virus B3. The test is described as follows: in vitro inhibition of Coxsackie virus B3 replication. The following applies: for SI against Coxsackie virus B3 replication: selectivity index, preliminary in vitro assay.
For test [1], the system named is influenza virus A/Hanfang/359/95 (H3N2). The test is described as follows: in vitro antiviral assay against influenza virus A/Hanfang/359/95. To be noted: selectivity index, preliminary in vitro assay.
For test [2], the system named is herpes simplex virus 1 (HSV-1). Kind of test: in vitro antiviral assay against herpes simplex virus 1.

With `Cc1cc(CCCOc2c(C)cc(-c3noc(C(F)(F)F)n3)cc2C)on1` [Pleconaril], the IC50 in the test on Coxsackie virus B3 (Enterovirus B, B3, read-out: IC50 against Coxsackie virus B3 replication) stood at 0.41 µM. The “SI against Coxsackie virus B3 replication” value in the test on Coxsackie virus B3 amounted to 243.9.

Regarding `NC(=O)c1ncn([C@@H]2O[C@H](CO)[C@@H](O)[C@H]2O)n1` [RBV], in the test on Coxsackie virus B3, the “SI against Coxsackie virus B3 replication” value amounted to 9.0. Further, in test [1], the “SI against influenza virus A/Hanfang/359/95 (H3N2)” value is listed as 1200.

As for `Nc1nc2c(ncn2COCCO)c(=O)[nH]1` [acyclovir], in test [2] (Human alphaherpesvirus 1, read-out: IC50 against herpes simplex virus 1 (HSV-1)), the IC50 turned out to be 0.71 µM. Further, in test [2] (selectivity index, preliminary in vitro assay), the “SI against herpes simplex virus 1 (HSV-1)” value is recorded as 140.9.
